Like-named read-outs stand apart in the source and are kept apart here. Bridge positions count the residues as written; N and C are the ends. Square brackets hold non-standard residues; d marks the D form. Peptide text beside a SMILES is read from it. * marks the point of attachment. X1 = CC[C@H](C)CCCCC(=O)*; Dab = NCC[C@H](N)C(=O)O
What was measured:
megalin = target: T1, megalin (Homo sapiens, UniProt P98164); assay: Megalin substrate FITC-BSA uptake by Calu-3 cells, confocal microscopy; format: cell-based; conditions: 4 h; for ratio of FITC-BSA to nucleus integrated density: 100 mg/L FITC-BSA, Calu-3 cells, FITC-BSA only 0.58 ± 0.04; for effect on cellular uptake of FITC-BSA: polymyxin B 30 and 60 mg/L, tobramycin 70 and 140 mg/L
T1 construct: endogenous in cells; host or cells: Calu-3 (human lung epithelial cells)
Description: As albumin is an endogenous substrate of megalin [30], cellular distribution of fluorescein-labeled BSA (FITC-BSA) was evaluated in the presence of polymyxin B and tobramycin to investigate the functional activity of megalin in Calu-3 cells. Calu-3 cells were grown in an eight-well chamber slide at a density of 2 × 10^5 cell/mL in 10% FBS supplemented DMEM/F-12 cell culture media. After overnight incubation at 37 °C and 5% CO2, cells were washed to remove old media and were incubated for 4 h with 100 μg/mL of FITC-BSA in fresh cell culture media and in the presence and absence of polymyxin B (30 and 60 mg/L) and tobramycin (70 and 140 mg/L). After 4 h, cells were washed and stained with Hoechst for nucleus staining and cell mask deep red for cell membrane staining. Cells were finally washed and covered with Prolong gold antifade mounting reagent and mounted on a 60× oil immersion objective for imaging. Images were taken with a Nikon Eclipse T1 confocal microscope. Images were processed with Nikon (NIS-Elements) and Image J (version 1.54) software.

Calu-3 cell monolayer [1] = assay: Transport in Calu-3 cell monolayer in presence of megalin inhibitor sodium maleate; format: in vitro ADME, human; conditions: for cellular accumulation / remaining in the apical chamber / intracellular accumulation normalized to protein: 2 h; for intracellular accumulation normalized to protein: Calu-3 monolayer lysate (RIPA)
Description: The transport behavior of polymyxin B and tobramycin in the Calu-3 cell monolayer were also evaluated in the presence of 8 mg/mL of sodium maleate, an agent known to inhibit megalin receptors via shedding of the megalin protein [23]. Calu-3 cell monolayer in trans-well inserts was formed following our previously published ALI culture protocol. Cell monolayers were pre-incubated with 8 mg/mL of sodium maleate for 4 h and were subsequently incubated with polymyxin B and tobramycin for 2 h. Samples were collected from the apical and basal chambers of the ALI culture system, analyzed using an LC-MS/MS system, and the drug content was calculated. The cell monolayer was then lysed with lysis buffer (RIPA buffer, Catalogue 89900, Thermofisher Scientific, Waltham, MA, USA) and cellular drug content was measured. Cell lysate (25 µL) from each sample was used for protein measurement. The amount of drug accumulated in the cell was normalized according to the amount of protein present in the samples. Polymyxin B and tobramycin concentrations in the samples, in the presence and absence of the megalin inhibitor sodium maleate, were plotted and statistical significance was calculated using Graph Pad Prism (version 9).

[2] = system: human lung epithelial Calu-3 cells; format: cell-based
Description: Assessment of cytotoxicity was performed using aqueous solutions of polymyxin B, tobramycin, and the combination of both in human lung epithelial Calu-3 cells. This cytotoxicity assessment aimed to determine safe drug concentrations for the transport and imaging experiments. Cells were seeded in 96-well flat bottom plate (Corning, NY, USA) at a density of 2 × 10^5 cells/mL. A wide concentration range was chosen, considering a molar ratio of 1:5 polymyxin B to tobramycin based on the literature. Lactate dehydrogenase (LDH) assay was used for the measurement of cytotoxicity. Vehicle-treated cells were considered as the negative control, while 10× lysis buffer treated cells were employed as the positive control. For the imaging study, Calu-3 cells were cultured in a 35 mm glass bottom culture dish at a density of 2 × 10^5 cells/mL and were treated with a vehicle, tobramycin 700 mg/L, polymyxin B 300 mg/L, and the combination. After treatment, cells were washed with PBS and stained with PI (100 ng/mL) and DAPI (1 mg/L) for 30 min in dark. Cells were washed again with PBS and mounted for imaging with Calu-3 cell culture media.

Calu-3 cell monolayer [3] = assay: Transport study in air liquid interface Calu-3 cell monolayer; conditions: LC-MS/MS; for transport rate, apparent permeability coefficient (Papp), in combination compared to drug alone / amount remaining in the apical chamber, combination compared to drug alone / transport from apical chamber to basal medium: Calu-3 ALI monolayer; for transport rate, apparent permeability coefficient (Papp), in combination compared to drug alone: apical to basal, polymyxin B 30 mg/L + tobramycin 70 mg/L vs each alone, p < 0.0001; for transport rate, apparent permeability coefficient (Papp), in combination compared to drug alone / accumulation in Calu-3 cell monolayer / transport from apical chamber to basal medium: HBSS; for amount remaining in the apical chamber, combination compared to drug alone: after 4 h of transport study; for accumulation in Calu-3 cell monolayer: at 4 h; for transport from apical chamber to basal medium: 4 h
Description: Human lung epithelial Calu-3 cells were grown in a 6.5 mm cell culture insert in a trans-well plate for 3 days using both apical and basal media. The apical media was withdrawn to let the cells grow in an air liquid interface (ALI). The system was maintained for 14 days, with the basal media changed every other day. The culture medium was DMEM/F-12 supplemented with 10% (v/v, FBS) and 1% (v/v) nonessential amino acid, and penicillin and streptomycin (100 units/mL of penicillin and 100 mg/L of streptomycin). After 14 days of differentiation at the ALI condition, the trans-epithelial electrical resistance (TEER) value was measured to investigate the integrity of the formed Calu-3 monolayer.
The transport study was conducted in the Calu-3 cell monolayer according to our previously published ALI culture protocol. TEER values were measured before and after the transport study to ensure the cell monolayer integrity was maintained. As the transport process was done in HBSS buffer, the drug solution was also prepared in HBSS buffer. The cell monolayer inserts were incubated with HBSS buffer for 30 min to equilibrate. The following drug solutions were used in the transport process: polymyxin B 30 mg/L, tobramycin 70 mg/L, and the combination of polymyxin B 30 mg/L and tobramycin 70 mg/L. An aliquot of 200 µL of drug solution was added to the apical chamber and 600 µL of HBSS buffer was added to the basal chamber. The samples were collected from the basal chamber every hour for a total of 4 h and the basal chamber was refilled with fresh HBSS buffer. Transported drug from the basal chamber, remaining drug from the apical chamber, and drug accumulated in the cell monolayer were extracted and analyzed using a reversed-phase LC/MS system. Drug extraction and LC/MS analysis was performed according to a previously published protocol.
For the transported samples, all buffer in the basal chamber was collected to a centrifuge tube. Colistin (1 mg/L) was added as the internal standard, and formic acid (0.1%, v/v) was added to each sample. For drug analysis in the cell, the insert was cut using a sharp scalpel. The cells in the membrane were lysed overnight with RIPA buffer and 200 µL of each sample was used to extract the drug using a protein precipitation method. Acetonitrile (400 µL) was added to the cell lysate and vortexed well to precipitate all the protein. Internal standard and formic acid were added to the samples as previously described, vortexed well, and centrifuged before transferring the supernatant into the injection vial.
The drugs were analyzed using an LC-MS/MS equipped with a C18 column (2.6 μm, 50 mm × 3 mm), a liquid chromatography system (Agilent 1200, Santa Clara, CA, USA), and a triple quadrupole mass spectrometer (Agilent 6460 QQQ, Santa Clara, CA, USA) with an electrospray ionization source. The mobile phase was 0.1% formic acid solution in water (90%) and 0.1% formic acid solution in acetonitrile (10%) with a flow rate of 0.6 mL/min. A gradient elution procedure was used, and each component was measured via multiple reaction monitoring (MRM) in the positive ionization mode (Table 1).

renal cortex = conditions: 400 mg/kg of sodium maleate administration, within 3 h after injection; cited from earlier work
Calu-3 cells = assay: Cellular uptake of polymyxin B by confocal microscopy (anti-polymyxin B antibody, Alexa 647); format: cell-based, human; conditions: 4 h
Description: Polymyxin B distribution in the Calu-3 cell monolayer was investigated using confocal laser scanning microscopy (CLSM). At the end of the transport process, the Calu-3 cell monolayer was prepared for imaging. The cell monolayer was washed with phosphate-buffered saline after treatment and fixed with 4% paraformaldehyde for 15 min. The cell monolayer was then permeabilized with 0.1% triton X-100 for 10 min and blocked with 3% goat serum in 0.1% triton X-100 for 2 h. To stain intracellular polymyxin B, the cell monolayer was then incubated overnight with mouse anti-polymyxin B antibody at 4 °C in the dark. After overnight incubation, the cell monolayer was incubated with goat anti-mouse IgG conjugated with Alexa Flour™ 647 for 2 h at room temperature. The nuclei were stained with Hoechst 33342.
For the drug accumulation study, Calu-3 cells were cultured in a glass bottom 35 mm dish (Ashland, MA, USA) and were incubated with 30 mg/L polymyxin B in the absence and presence of 70 mg/L tobramycin for 4 h. […] For the drug accumulation study, the background subtracted integrated density of Alexa Flour 647 (for polymyxin B) was calculated and data were presented as mean polymyxin B intensity per cell. Cell numbers per imaging field were counted using the Hoechst 33342 intensity and ImageJ “cell counter” Macro (ImageJ version 2.9).

[4] = combination (polymyxin B 30 mg/L + tobramycin 70 mg/L), p < 0.0001 vs alone
[5] = drug alone (polymyxin B 30 mg/L or tobramycin 70 mg/L), cell lysate RIPA
[6] = drug alone, without sodium maleate, Calu-3 ALI monolayer, LC-MS/MS
[7] = with sodium maleate 8 mg/mL (4 h pre-incubation), Calu-3 ALI monolayer, LC-MS/MS

T1 sequence (P98164 26-4655): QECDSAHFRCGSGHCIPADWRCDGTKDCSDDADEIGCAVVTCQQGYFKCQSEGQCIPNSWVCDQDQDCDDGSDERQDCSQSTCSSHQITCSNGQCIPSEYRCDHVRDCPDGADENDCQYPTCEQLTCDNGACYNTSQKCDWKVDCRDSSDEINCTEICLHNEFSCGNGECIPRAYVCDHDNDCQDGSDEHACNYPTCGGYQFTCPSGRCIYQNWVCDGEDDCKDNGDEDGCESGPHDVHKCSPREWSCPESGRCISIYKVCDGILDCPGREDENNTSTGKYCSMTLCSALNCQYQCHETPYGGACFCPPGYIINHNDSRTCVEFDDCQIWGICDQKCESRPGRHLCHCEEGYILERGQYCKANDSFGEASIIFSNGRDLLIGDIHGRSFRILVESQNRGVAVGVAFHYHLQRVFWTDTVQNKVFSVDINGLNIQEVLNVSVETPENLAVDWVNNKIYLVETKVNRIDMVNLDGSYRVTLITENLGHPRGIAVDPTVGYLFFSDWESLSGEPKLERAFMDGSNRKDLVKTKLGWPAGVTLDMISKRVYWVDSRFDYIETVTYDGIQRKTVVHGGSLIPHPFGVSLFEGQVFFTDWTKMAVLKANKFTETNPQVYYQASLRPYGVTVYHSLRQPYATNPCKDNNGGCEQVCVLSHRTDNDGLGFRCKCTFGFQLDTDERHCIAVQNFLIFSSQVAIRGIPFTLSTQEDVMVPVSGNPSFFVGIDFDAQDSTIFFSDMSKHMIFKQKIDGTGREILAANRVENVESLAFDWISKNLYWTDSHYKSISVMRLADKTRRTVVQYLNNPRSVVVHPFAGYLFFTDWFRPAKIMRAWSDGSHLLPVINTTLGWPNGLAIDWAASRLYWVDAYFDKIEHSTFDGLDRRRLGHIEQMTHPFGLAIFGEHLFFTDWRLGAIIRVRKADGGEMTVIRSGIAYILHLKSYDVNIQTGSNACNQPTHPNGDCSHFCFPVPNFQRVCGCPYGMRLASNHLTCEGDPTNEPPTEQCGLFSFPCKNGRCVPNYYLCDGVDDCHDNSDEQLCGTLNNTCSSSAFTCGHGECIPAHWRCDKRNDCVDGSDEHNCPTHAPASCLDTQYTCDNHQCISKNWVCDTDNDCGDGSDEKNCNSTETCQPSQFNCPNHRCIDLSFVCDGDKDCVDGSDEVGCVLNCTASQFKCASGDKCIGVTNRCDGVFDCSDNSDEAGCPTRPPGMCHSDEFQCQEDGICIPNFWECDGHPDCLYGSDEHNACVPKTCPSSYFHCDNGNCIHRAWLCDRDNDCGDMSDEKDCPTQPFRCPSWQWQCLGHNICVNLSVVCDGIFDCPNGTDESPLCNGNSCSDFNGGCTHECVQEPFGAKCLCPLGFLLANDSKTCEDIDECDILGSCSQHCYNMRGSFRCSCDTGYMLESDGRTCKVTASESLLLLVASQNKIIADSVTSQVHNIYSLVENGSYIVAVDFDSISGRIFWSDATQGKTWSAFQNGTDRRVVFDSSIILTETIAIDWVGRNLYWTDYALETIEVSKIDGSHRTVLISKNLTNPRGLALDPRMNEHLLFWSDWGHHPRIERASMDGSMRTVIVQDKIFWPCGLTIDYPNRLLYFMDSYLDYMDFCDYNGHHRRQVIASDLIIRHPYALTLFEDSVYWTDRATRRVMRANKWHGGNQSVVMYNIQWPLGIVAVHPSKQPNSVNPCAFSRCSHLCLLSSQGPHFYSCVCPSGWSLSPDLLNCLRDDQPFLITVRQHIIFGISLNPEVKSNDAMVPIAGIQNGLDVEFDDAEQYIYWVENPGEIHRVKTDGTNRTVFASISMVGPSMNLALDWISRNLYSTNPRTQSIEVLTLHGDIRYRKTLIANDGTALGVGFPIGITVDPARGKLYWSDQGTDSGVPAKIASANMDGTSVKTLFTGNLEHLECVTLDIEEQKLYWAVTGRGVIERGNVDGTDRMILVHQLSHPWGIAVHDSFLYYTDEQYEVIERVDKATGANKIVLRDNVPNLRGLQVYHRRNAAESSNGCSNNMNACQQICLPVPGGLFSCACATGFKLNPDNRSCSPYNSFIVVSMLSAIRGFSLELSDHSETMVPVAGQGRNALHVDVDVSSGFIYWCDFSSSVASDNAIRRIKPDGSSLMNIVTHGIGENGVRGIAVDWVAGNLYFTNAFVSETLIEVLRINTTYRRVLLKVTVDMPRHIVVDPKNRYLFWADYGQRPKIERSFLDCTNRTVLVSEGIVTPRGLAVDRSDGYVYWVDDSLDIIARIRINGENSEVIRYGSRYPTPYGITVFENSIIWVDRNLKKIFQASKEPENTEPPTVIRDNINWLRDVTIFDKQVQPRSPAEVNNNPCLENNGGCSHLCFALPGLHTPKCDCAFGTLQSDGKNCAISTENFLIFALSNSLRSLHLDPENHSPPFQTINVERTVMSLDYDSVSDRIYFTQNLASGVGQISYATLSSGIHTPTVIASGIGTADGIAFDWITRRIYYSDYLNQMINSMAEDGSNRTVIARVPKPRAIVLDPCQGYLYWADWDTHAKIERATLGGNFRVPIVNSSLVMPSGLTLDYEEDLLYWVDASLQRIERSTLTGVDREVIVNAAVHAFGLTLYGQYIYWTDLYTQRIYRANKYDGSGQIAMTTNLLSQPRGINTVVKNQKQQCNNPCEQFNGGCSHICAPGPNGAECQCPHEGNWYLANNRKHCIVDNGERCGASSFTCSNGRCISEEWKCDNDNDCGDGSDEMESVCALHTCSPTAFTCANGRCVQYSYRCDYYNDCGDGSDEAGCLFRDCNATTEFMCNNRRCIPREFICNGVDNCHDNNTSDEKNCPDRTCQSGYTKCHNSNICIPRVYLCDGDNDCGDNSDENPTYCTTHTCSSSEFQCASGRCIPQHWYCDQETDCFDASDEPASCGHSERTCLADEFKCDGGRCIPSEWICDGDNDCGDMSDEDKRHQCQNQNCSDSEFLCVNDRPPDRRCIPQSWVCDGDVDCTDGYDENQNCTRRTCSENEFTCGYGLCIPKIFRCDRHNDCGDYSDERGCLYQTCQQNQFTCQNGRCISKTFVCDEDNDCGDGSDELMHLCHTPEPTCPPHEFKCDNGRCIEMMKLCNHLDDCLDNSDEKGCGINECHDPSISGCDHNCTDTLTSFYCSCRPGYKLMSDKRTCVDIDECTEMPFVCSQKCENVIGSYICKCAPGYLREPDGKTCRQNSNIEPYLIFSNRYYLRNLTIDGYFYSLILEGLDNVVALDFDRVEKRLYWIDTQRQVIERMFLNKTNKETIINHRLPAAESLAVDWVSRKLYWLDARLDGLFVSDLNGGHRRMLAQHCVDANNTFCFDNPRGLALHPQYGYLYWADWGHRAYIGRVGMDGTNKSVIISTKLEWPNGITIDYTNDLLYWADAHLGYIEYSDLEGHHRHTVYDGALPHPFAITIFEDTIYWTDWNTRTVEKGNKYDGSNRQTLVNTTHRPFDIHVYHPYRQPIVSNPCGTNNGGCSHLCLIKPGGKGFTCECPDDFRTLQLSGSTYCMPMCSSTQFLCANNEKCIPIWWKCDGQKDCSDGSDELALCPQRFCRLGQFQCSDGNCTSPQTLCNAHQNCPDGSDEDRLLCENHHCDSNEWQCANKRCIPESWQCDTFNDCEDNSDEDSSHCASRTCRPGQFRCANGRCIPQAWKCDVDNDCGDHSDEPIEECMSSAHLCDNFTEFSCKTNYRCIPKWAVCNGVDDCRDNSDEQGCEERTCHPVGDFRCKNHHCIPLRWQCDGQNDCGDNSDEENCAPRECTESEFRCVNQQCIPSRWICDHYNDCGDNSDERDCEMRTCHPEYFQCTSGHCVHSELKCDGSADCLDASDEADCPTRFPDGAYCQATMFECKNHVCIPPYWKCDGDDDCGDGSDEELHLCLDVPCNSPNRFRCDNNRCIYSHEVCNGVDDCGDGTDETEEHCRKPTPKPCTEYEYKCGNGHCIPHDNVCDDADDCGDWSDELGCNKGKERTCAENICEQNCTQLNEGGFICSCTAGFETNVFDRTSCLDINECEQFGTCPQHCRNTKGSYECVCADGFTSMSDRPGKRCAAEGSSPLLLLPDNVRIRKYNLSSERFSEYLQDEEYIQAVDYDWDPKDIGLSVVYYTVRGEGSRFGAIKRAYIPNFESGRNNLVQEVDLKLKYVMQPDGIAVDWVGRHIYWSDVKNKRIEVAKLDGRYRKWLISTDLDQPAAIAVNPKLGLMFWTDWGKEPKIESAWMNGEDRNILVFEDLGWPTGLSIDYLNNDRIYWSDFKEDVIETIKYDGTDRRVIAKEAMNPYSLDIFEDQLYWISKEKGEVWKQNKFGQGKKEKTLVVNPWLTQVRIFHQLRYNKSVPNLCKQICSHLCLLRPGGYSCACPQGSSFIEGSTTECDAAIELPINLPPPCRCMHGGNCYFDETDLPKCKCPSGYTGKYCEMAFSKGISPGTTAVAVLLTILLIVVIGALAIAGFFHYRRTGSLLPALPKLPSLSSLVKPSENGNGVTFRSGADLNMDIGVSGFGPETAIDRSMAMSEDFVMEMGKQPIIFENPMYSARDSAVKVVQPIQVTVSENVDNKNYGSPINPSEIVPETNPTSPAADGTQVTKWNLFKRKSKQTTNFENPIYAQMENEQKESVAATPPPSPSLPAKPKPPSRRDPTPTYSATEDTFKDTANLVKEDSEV

SMILES: NC[C@H]1O[C@H](O[C@H]2[C@H](O)[C@@H](O[C@H]3O[C@H](CO)[C@@H](O)[C@H](N)[C@H]3O)[C@H](N)C[C@@H]2N)[C@H](N)C[C@@H]1O [tobramycin]
- ratio of FITC-BSA to nucleus integrated density (megalin; 70 mg/L tobramycin): 0.41 ± 0.02
- ratio of FITC-BSA to nucleus integrated density (megalin; 140 mg/L tobramycin): 0.30 ± 0.02
- effect on cellular uptake of FITC-BSA (megalin): prevented the cellular uptake of FITC-BSA in a concentration-dependent manner
- transported from the apical chamber to the basal chamber (Calu-3 cell monolayer [1]): 11.9 ± 1.3%
- reduction in viability of Calu-3 cells compared to the control [2]: did not result in any reduction in the viability
- transport rate, apparent permeability coefficient (Papp), in combination compared to drug alone (Calu-3 cell monolayer [3]): decreased significantly
- amount remaining in the apical chamber, combination compared to drug alone (Calu-3 cell monolayer [3]): Significantly higher amounts
- accumulation in Calu-3 cell monolayer (Calu-3 cell monolayer [3]; [4]): 3.8 ± 0.8%
- accumulation in Calu-3 cell monolayer (Calu-3 cell monolayer [3]; [5]): 13.2 ± 4.3%

SMILES: O=C([O-])/C=C\C(=O)[O-].[Na+].[Na+] [sodium maleate]
- decrease of renal cortex accumulation of amikacin (renal cortex): 50%

SMILES: CC[C@H](C)CCCCC(=O)N[C@@H](CCN)C(=O)N[C@H](C(=O)N[C@@H](CCN)C(=O)N[C@H]1CCNC(=O)[C@H]([C@@H](C)O)NC(=O)[C@H](CCN)NC(=O)[C@H](CCN)NC(=O)[C@H](CC(C)C)NC(=O)[C@@H](Cc2ccccc2)NC(=O)[C@H](CCN)NC1=O)[C@@H](C)O [polymyxin B, Polymyxin B] (X1-[Dab]T[Dab][Dab][Dab][dF]L[Dab][Dab]T; lactam 4-C)
- ratio of FITC-BSA to nucleus integrated density (megalin; 30 mg/L polymyxin B): 0.36 ± 0.03
- ratio of FITC-BSA to nucleus integrated density (megalin; 60 mg/L polymyxin B): 0.29 ± 0.02
- effect on cellular uptake of FITC-BSA (megalin): prevented the cellular uptake of FITC-BSA in a concentration-dependent manner
- polymyxin B intensity per cell (Calu-3 cells; combination polymyxin B 30 mg/L + tobramycin 70 mg/L, mean ± SD, p < 0.001 vs polymyxin B alone): 932.3 ± 136.0
- polymyxin B intensity per cell (Calu-3 cells; polymyxin B 30 mg/L alone, Alexa 647, mean ± SD, saline control 113.0 ± 13.6): 2259.3 ± 309.4
- cellular accumulation (Calu-3 cell monolayer [1]; [6]): 26.5 ± 2.1%
- remaining in the apical chamber (Calu-3 cell monolayer [1]; [6]): 59.9 ± 1.2%
- transported from the apical chamber to the basal chamber (Calu-3 cell monolayer [1]; drug alone, without sodium maleate, Calu-3 ALI monolayer, 2 h incubation, LC-MS/MS): 13.5 ± 1.6%
- transported from the apical chamber to the basal chamber (Calu-3 cell monolayer [1]; in the presence of sodium maleate 8 mg/mL (4 h pre-incubation), Calu-3 ALI monolayer, 2 h incubation, LC-MS/MS): 8.2 ± 0.9%
- cellular accumulation (Calu-3 cell monolayer [1]; [7]): 8.1 ± 0.4%
- remaining in the apical chamber (Calu-3 cell monolayer [1]; [7]): 83.7 ± 1.3%
- intracellular accumulation normalized to protein (Calu-3 cell monolayer [1]; with sodium maleate 8 mg/mL (4 h pre-incubation), LC-MS/MS): 1.9 ± 0.04 ng/µg of protein
- intracellular accumulation normalized to protein (Calu-3 cell monolayer [1]; without sodium maleate, LC-MS/MS): 6.0 ± 0.8 ng/µg of protein
- safety of concentrations chosen for the transport study ([2]; 30 mg/L polymyxin B alone, 70 mg/L tobramycin alone, and their combination, based on cell viability data): safe
- cell death compared to the control ([2]; at 300 mg/L, LDH assay): significant cell death
- PI intensity ([2]; polymyxin B 300 mg/L treated Calu-3 cells, mean ± SD (n = 3), p < 0.001 vs control): 4334.0 ± 1131.6
- transport rate, apparent permeability coefficient (Papp), in combination compared to drug alone (Calu-3 cell monolayer [3]): decreased significantly
- amount remaining in the apical chamber, combination compared to drug alone (Calu-3 cell monolayer [3]): Significantly higher amounts
- transport from apical chamber to basal medium (Calu-3 cell monolayer [3]; [4]): 3.9 ± 0.3%
- accumulation in Calu-3 cell monolayer (Calu-3 cell monolayer [3]; [4]): 6.4 ± 0.1%
- accumulation in Calu-3 cell monolayer (Calu-3 cell monolayer [3]; [5]): 21.4 ± 2.0%
- transport from apical chamber to basal medium (Calu-3 cell monolayer [3]; drug alone (polymyxin B 30 mg/L), 30 min equilibration): 7.1 ± 0.4%

Reference: paper PMC10975719, “Tobramycin Reduces Pulmonary Toxicity of Polymyxin B via Inhibiting the Megalin-Mediated Drug Uptake in the Human Lung Epithelial Cells” (Pharmaceutics, 2024)
